The values below come from ChEMBL document CHEMBL1629553, “Antimalarial activity of a new stilbene glycoside from Parthenocissus tricuspidata in mice” (Antimicrob Agents Chemother, 2008).

The source made the active and inactive calls. The rule behind the calls is not given here.

For series [1], the system named is Plasmodium berghei. In words: Antimalarial activity against chloroquine-sensitive Plasmodium berghei ATCC 50175 infected in ICR mouse assessed as parasitemia at 10 mg/kg/day, po pretreated for 4 days before infection and measured after 72 hrs (reference value: 4.6+/-0.21 %). It is filed as functional.
In series [2] the test system is Plasmodium berghei. In words: Antimalarial activity against chloroquine-sensitive Plasmodium berghei ATCC 50175 infected ICR mouse assessed as increase in mouse survival at 5 to 25 mg/kg/day, po administered 24 hrs post-treatment. It is filed as functional.
For series [3], the system named is Plasmodium berghei. As to the kind of experiment: Antimalarial activity against chloroquine-sensitive Plasmodium berghei ATCC 50175 infected in ICR mouse assessed as reduced parasitemia at 5 mg/kg/day, po administered 24 hrs post-treatment for 4 day measured on day 7. It is filed as functional. Also on record: scale not given: the % may be the effect or the level left.

Series [4] has as its system Plasmodium berghei. As to the kind of experiment: Antimalarial activity against chloroquine-sensitive Plasmodium berghei ATCC 50175 infected in ICR mouse assessed as reduced parasitemia at 10 mg/kg/day, po administered 24 hrs post-treatment for 4 day measured on day 7. The series is classed as functional. Details: scale not given: the % may be the effect or the level left.

Series [5] concerns Plasmodium berghei. As to the kind of experiment: Antimalarial activity against chloroquine-sensitive Plasmodium berghei ATCC 50175 infected in ICR mouse assessed as chemosuppression of parasitemia at 10 mg/kg/day, po administered 24 hrs post-treatment measured after 4 days. It is filed as functional.
The subject of series [6] is Plasmodium berghei. In words: Antimalarial activity against chloroquine-sensitive Plasmodium berghei ATCC 50175 infected in ICR mouse assessed as reduced parasitemia at 10 mg/kg/day, po administered 24 hrs post-treatment measured on day 3. The series is classed as functional. Details: scale not given: the % may be the effect or the level left.
The subject of series [7] is Plasmodium berghei. In words: Antimalarial activity against chloroquine-sensitive Plasmodium berghei ATCC 50175 infected in ICR mouse assessed as parasitemia at 5 mg/kg/day, po administered 24 hrs post-treatment measured after 4 days (reference value: 56.3+/-0.16 %). The series is classed as functional.
Series [8] has as its system Plasmodium berghei. As to the kind of experiment: Antimalarial activity against chloroquine-sensitive Plasmodium berghei ATCC 50175 infected in ICR mouse assessed as chemosuppression of parasitemia at 5 mg/kg/day, po administered 24 hrs post-treatment measured after 4 days. The series is classed as functional.
Series [9] has as its system Plasmodium berghei. In words: Antimalarial activity against chloroquine-sensitive Plasmodium berghei ATCC 50175 infected in ICR mouse assessed as parasitemia at 5 mg/kg/day, po pretreated for 4 days before infection and measured after 72 hrs (reference value: 4.6+/-0.21 %). The series is classed as functional.
The subject of series [10] is Plasmodium berghei. In words: Antimalarial activity against chloroquine-sensitive Plasmodium berghei ATCC 50175 infected in ICR mouse assessed as chemosuppression of parasitemia at 25 mg/kg/day, po pretreated for 4 days before infection and measured after 72 hrs. The series is classed as functional.
Series [11] has as its system Plasmodium berghei. In words: Antimalarial activity against chloroquine-sensitive Plasmodium berghei ATCC 50175 infected in ICR mouse assessed as parasitemia at 25 mg/kg/day, po administered 24 hrs post-treatment measured after 4 days (reference value: 56.3+/-0.16 %). The series is classed as functional.
The subject of series [12] is Plasmodium berghei. As to the kind of experiment: Antimalarial activity against chloroquine-sensitive Plasmodium berghei ATCC 50175 infected in ICR mouse assessed as parasitemia at 10 mg/kg/day, po administered 24 hrs post-treatment measured after 4 days (reference value: 56.3+/-0.16 %). The series is classed as functional.
The subject of series [13] is Plasmodium berghei. In words: Antimalarial activity against chloroquine-sensitive Plasmodium berghei ATCC 50175 infected in ICR mouse assessed as chemosuppression of parasitemia at 5 mg/kg/day, po pretreated for 4 days before infection and measured after 72 hrs. It is filed as functional.
For series [14], the system named is Mus musculus. In words: Toxicity against chloroquine-sensitive Plasmodium berghei ATCC 50175 infected ICR mouse at 5 to 25 mg/kg, po. It is filed as organism-based. Details: dose 5-25 mg/kg, route oral. The following applies: in vivo.
Series [15] relates to Plasmodium berghei. In words: Antimalarial activity against chloroquine-sensitive Plasmodium berghei ATCC 50175 infected in ICR mouse assessed as reduced parasitemia at 5 mg/kg/day, po administered 24 hrs post-treatment measured on day 3. It is filed as functional. Also on record: scale not given: the % may be the effect or the level left.
Series [16] deals with Plasmodium berghei. As to the kind of experiment: Antimalarial activity against chloroquine-sensitive Plasmodium berghei ATCC 50175 infected in ICR mouse assessed as reduced parasitemia at 25 mg/kg/day, po administered 24 hrs post-treatment measured on day 3. It is filed as functional. Also on record: scale not given: the % may be the effect or the level left.
Series [17] deals with Plasmodium berghei. As to the kind of experiment: Antimalarial activity against chloroquine-sensitive Plasmodium berghei ATCC 50175 infected in ICR mouse assessed as parasitemia at 25 mg/kg/day, po pretreated for 4 days before infection and measured after 72 hrs (reference value: 4.6+/-0.21 %). It is filed as functional.
The subject of series [18] is Plasmodium berghei. In words: Antimalarial activity against chloroquine-sensitive Plasmodium berghei ATCC 50175 infected in ICR mouse assessed as chemosuppression of parasitemia at 10 mg/kg/day, po pretreated for 4 days before infection and measured after 72 hrs. The series is classed as functional.
In series [19] the test system is Plasmodium berghei. In words: Antimalarial activity against chloroquine-sensitive Plasmodium berghei ATCC 50175 infected in ICR mouse assessed as reduced parasitemia at 25 mg/kg/day, po administered 24 hrs post-treatment for 4 day measured on day 7. The series is classed as functional. Details: scale not given: the % may be the effect or the level left.
Series [20] relates to Plasmodium berghei. In words: Antimalarial activity against chloroquine-sensitive Plasmodium berghei ATCC 50175 infected in ICR mouse assessed as chemosuppression of parasitemia at 25 mg/kg/day, po administered 24 hrs post-treatment measured after 4 days. The series is classed as functional.
Series [21] concerns Plasmodium berghei. As to the kind of experiment: Antimalarial activity against chloroquine-sensitive Plasmodium berghei ATCC 50175 infected in ICR mouse assessed as parasitemia at 1.2 mg/kg/day, po pretreated for 4 days before infection and measured after 72 hrs (reference value: 4.6+/-0.21 %). The series is classed as functional.
The test system of series [22] is Plasmodium berghei. As to the kind of experiment: Antimalarial activity against chloroquine-sensitive Plasmodium berghei ATCC 50175 infected in ICR mouse assessed as chemosuppression of parasitemia at 1.2 mg/kg/day, po pretreated for 4 days before infection and measured after 72 hrs. It is filed as functional.
Series [23] deals with Plasmodium berghei. As to the kind of experiment: Antimalarial activity against chloroquine-sensitive Plasmodium berghei ATCC 50175 infected ICR mouse assessed as survival of mouse at 5 mg/kg/day, po for 4 days measured after 30 days. The series is classed as functional, organism-based.
For series [24], the system named is Plasmodium berghei. As to the kind of experiment: Antimalarial activity against chloroquine-sensitive Plasmodium berghei ATCC 50175 infected ICR mouse assessed as survival of mouse at 5 mg/kg/day, po for 4 days measured after 25 days. It is filed as functional, organism-based.
The test system of series [25] is Plasmodium berghei. As to the kind of experiment: Antimalarial activity against chloroquine-sensitive Plasmodium berghei ATCC 50175 infected ICR mouse assessed as survival of mouse at 10 mg/kg/day, po for 4 days measured after 27 days. The series is classed as functional, organism-based.
Series [26] concerns Plasmodium berghei. In words: Antimalarial activity against chloroquine-sensitive Plasmodium berghei ATCC 50175 infected ICR mouse assessed as survival of mouse at 25 mg/kg/day, po for 4 days measured after 30 days. The series is classed as functional, organism-based.

For the compound `OC[C@H]1O[C@@H](OC[C@@H]2O[C@H](Oc3cc(O)cc(/C=C/c4ccc(O)cc4)c3)[C@@H](O)[C@H](O)[C@H]2O)[C@H](O)[C@@H](O)[C@@H]1O`, the Activity in [1] came out at 16.5%; in series [3] it was 73.6%; in [4], 86.3%; in series [5] it was 60.2%; in series [6], 18.75%; in series [7] it was 31.3%. The Activity in series [8] was determined as 44.3%; in series [9], 23.2%; in [10] it was 80.1%; in series [11], 15.2%; in series [12], 22.4%; in series [13], 58.7%. Also, the Activity result in series [14] was “Non-toxic”; in series [15], 6.25%; in series [16], 34.37%; in series [17], 11.3%; in [18], 70.6%; in series [19], 89.4%. Moreover, the Activity in [20] turned out to be 73.2%. In [2], the Time is 96 h.
In the case of `CCc1nc(N)nc(N)c1-c1ccc(Cl)cc1` [PYRIMETHAMINE], the values for the Activity in series [21] and in series [22] were 4.6% and 91.8%, respectively.
Consider `CCN(CC)CCCC(C)Nc1ccnc2cc(Cl)ccc12` (stereo not drawn) [CHLOROQUINE], for which the result in [23], in [24], in [25] and in series [26] was Active. The Activity in [7] is reported as 6.2%; in series [8], 89.3%.
